Reference: patent publication US5516651A, “Nucleic acids encoding calcitonin receptor and uses thereof” (The General Hospital Corporation, priority 1991, dated 1996)
Numbering of substitutions follows the chain as printed. Blank lines part the entries; values can stand above or below the compound they belong to.

Columns and labels:
human CTR [1] = target: T1, human CTR (Homo sapiens, UniProt P30988, L447P/S166F); experiment: cAMP assay in COS-M6 cells transfected with human CTR cDNA; format: cell-based
T1 construct: expressed in transfected cells; host or cells: COS-M6 (COS-7 subclone)
T1 sequence (P30988 25-490 isoform P30988-1 S166F/L463P): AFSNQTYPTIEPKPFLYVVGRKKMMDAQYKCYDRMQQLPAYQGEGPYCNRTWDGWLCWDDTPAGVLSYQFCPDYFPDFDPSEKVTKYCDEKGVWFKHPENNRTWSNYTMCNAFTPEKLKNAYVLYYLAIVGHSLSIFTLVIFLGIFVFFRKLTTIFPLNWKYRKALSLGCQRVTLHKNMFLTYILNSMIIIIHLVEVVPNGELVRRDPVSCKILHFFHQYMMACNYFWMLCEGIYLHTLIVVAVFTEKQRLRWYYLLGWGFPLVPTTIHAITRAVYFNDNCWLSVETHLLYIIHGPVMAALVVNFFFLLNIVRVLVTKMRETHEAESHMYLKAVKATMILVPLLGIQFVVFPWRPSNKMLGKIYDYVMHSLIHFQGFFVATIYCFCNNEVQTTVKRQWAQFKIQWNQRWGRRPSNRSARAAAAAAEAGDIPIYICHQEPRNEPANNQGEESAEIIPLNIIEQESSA
Protocol: Plasmid DNA was used to transfect COS-M6 cells growing in 10 cm petri dishes (Falcon, Lincoln Park, N.J.) using the DEAE-dextran/chloroquine procedure (Seed and Aruffo, 1987, Proc. Natl. Acad. Sci. USA 84:3365). Forty-eight hours after transfection, cells were incubated in the presence of either iodinated calcitonin for ligand binding studies, or unlabeled calcitonin for the assay of intracellular cAMP.
(§1) BIN-67 cells or COS-M6 cells were grown in 10 cm petri dishes. Forty eight hours before the cAMP assay, the COS-M6 cells were transfected with either human CTR cDNA, or with β-galactosidase cDNA which served as a control. After 24 hours, the transfected COS-M6 cells and the BIN-67 cells were trypsinized and transferred to plastic trays containing 24 16 mm wells (Falcon) at an initial plating density of 5×10^4 cells/well. To test for hormone-induced cAMP responses, the medium was removed from each well and the cells were washed with PBS supplemented with calcium and magnesium. Triplicate groups of cells were incubated for 20 minutes at 37° C. at room temperature with either test buffer [PBS supplemented with calcium, magnesium, 0.25% bovine serum albumin, 11 mM glucose and 1 mM 3-isobutyl-methyl-xanthine (IBMX)], or with 4 mM isoproterenol or peptide hormone at the appropriate concentrations. Reactions were stopped by placing the culture plates in a water bath at 100° C. until all liquid had evaporated. The plates were stored at -20° C. until assayed. The cAMP assay was performed by adding 1.0 ml of 50 mM sodium acetate buffer, pH 6.2, to each well. Dried cells were scraped into this buffer, transferred to glass tubes and centrifuged at 500×g for 10 minutes. Aliquots of supernatant were assayed for cAMP using a radioimmunoassay kit (New England Nuclear/Dupont cAMP [^125 I] Radioimmunoassay Kit, Dupont).

human CTR [2] = target: T1, human CTR; experiment: Radioligand binding to COS-M6 cells transfected with human CTR cDNA; settings: for competition for binding with radioiodinated salmon or human calcitonin: COS cells transfected with human CTR cDNA
Protocol: (§2) Human small ovarian cell carcinoma cells (BIN-67) were grown in 10 cm petri dishes in Dulbecco's modified Eagle's medium (DMEM) supplemented with 20% (vol/vol) heat inactivated fetal calf serum (GIBCO) and enriched with 25% Ham's F12 medium (GIBCO). Cells at near confluency, were passed approximately twice a week by trypsinization using 0.25% trypsin (GIBCO). Radioligand binding assays were performed in triplicate as follows. The cells were washed, trypsinized and counted in an automated cell counter (Coulter, Hialeah, Fla.). […] The mixture was incubated for 14-16 hours at 4° C. The cells were washed by layering 100 μl of cell suspension over 400 μl of 10% sucrose (wt/vol) in a mini-microfuge tube (Bio-Rad) and centrifuging at maximum speed in a microfuge for three minutes to pellet the cells. The supernatant was removed by aspiration, and the portion of the tube containing the cell pellet was cut off and assayed for radioactive content in a gamma counter (TM Analytic, Elk Grove Village, Ill.). Ligand binding to COS-M6 cells transfected with a human CTR-containing plasmid was performed using the same technique.

[3] = target: T2, calcitonin receptors of BIN-67 cells (Homo sapiens, UniProt P30988); experiment: Emulsion autoradiography of BIN-67 cells with [125I]-salmon calcitonin; format: binding
T2 construct: native BIN-67 cells (0.42 nM); endogenous in cells; host or cells: BIN-67 (human ovarian small cell carcinoma)
T2 sequence (P30988 25-490 isoform P30988-1 limits assumed): T1 sequence (P30988 25-490 isoform P30988-1 S166F/L463P) with F142S, P439L
Protocol: Cells were grown on glass chamber slides (Nunc, Kamstrup, DK). The medium was removed by aspiration and the cells were incubated in binding buffer (PBS supplemented with 11 mM glucose, 0.5% bovine serum albumin) with [^125 I]-salmon calcitonin (200 pM) with or without 10^-6 M unlabeled salmon calcitonin (Sigma). After 5 washes in ice cold PBS supplemented with calcium and magnesium, the cells were fixed in PBS plus 2% formaldehyde, coated with Kodak NTB2 emulsion and exposed for 1-3 weeks at 4° C., after which they were developed and counterstained with Giemsa.

BIN-67 cells = experiment: cAMP assay in BIN-67 cells; format: cell-based, human; settings: read-out: 50% maximal effective concentration (EC50) for cAMP increase
Protocol: as §1, with “Aliquots of supernatant were assayed for cAMP using a radioimmunoassay kit (New England Nuclear/Dupont cAMP [^125 I] Radioimmunoassay Kit, Dupont).” left out

[4] = target: T3, calcitonin binding sites of BIN-67 cells (Homo sapiens, UniProt P30988); experiment: Radioligand binding of salmon and human calcitonin to BIN-67 cells; settings: for displacement of radiolabeled salmon or human calcitonin binding: concentrations as high as 10^-5 M
T3 construct: native BIN-67 cells (0.42 nM); endogenous in cells; host or cells: BIN-67 (human ovarian small cell carcinoma)
T3 sequence (P30988 25-490 isoform P30988-1 limits assumed): T1 sequence (P30988 25-490 isoform P30988-1 S166F/L463P) with F142S, P439L
Protocol: as §2

[5] = target: T4, porcine calcitonin receptor (CTR) (Sus scrofa, UniProt P25117); format: cell-based
T4 construct: expressed in transfected cells; host or cells: COS cells
T4 sequence (P25117 30-482 isoform P25117-2 K186L): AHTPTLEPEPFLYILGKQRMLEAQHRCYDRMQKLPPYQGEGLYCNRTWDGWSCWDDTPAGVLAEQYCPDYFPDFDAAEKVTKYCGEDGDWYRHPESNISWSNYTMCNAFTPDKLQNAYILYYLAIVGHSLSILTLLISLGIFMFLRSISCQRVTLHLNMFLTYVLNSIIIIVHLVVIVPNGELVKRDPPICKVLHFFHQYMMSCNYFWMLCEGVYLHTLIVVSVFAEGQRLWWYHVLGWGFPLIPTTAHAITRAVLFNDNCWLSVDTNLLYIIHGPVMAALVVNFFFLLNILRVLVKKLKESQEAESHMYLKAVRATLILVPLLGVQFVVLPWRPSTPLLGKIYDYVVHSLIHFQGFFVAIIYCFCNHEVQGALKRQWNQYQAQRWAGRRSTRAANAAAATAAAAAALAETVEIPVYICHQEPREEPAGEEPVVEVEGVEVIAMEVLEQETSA
Protocol: (§3) The cloned porcine receptor is functionally coupled to increased intracellular cAMP (FIGS. 2A and 2B). A 4-fold increase in the concentration of intracellular cAMP was observed after incubation of porcine CTR-transfected COS cells with calcitonin, but there was no increase when cells were transfected with β-galactosidase and subsequently stimulated with calcitonin.
as §1, with “The plates were stored at -20° C. until assayed. The cAMP assay was performed by adding 1.0 ml of 50 mM sodium acetate buffer, pH 6.2, to each well. Dried cells were scraped into this buffer, transferred to glass tubes and centrifuged at 500×g for 10 minutes. Aliquots of supernatant were assayed for cAMP using a radioimmunoassay kit (New England Nuclear/Dupont cAMP [^125 I] Radioimmunoassay Kit, Dupont).” left out

[6] = target: T4, porcine calcitonin receptor (CTR); experiment: Radioiodinated salmon calcitonin binding to COS cells transfected with porcine CTR cDNA
From the text: (§4) Radioiodinated salmon calcitonin binds to LLC-PK1 cells and to COS cells transfected with the cloned porcine calcitonin receptor (CTR) cDNA (FIGS. 1A and 1B). […] Bovine parathyroid hormone (1-34) [PTH(1-34)]

[7] = test system: β-galactosidase transfected COS cells; experiment: cAMP response in mock (β-galactosidase) transfected COS cells; format: cell-based; settings: for increase in cAMP after stimulation with calcitonin: COS cells transfected with β-galactosidase; for activation of adenylate cyclase / increase of cAMP levels: β-galactosidase (mock) transfected COS cells
Protocol: as §3, §1

[8] = target: T5, calcitonin receptors of LLC-PK1 cells (Sus scrofa, UniProt P25117); experiment: Radioiodinated calcitonin binding to LLC-PK1 cells (Scatchard); parameters: species or system porcine; settings: FIG. 1A, read-out: apparent dissociation constant (Kd)
T5 construct: endogenous in cells; host or cells: LLC-PK1
T5 sequence (P25117 30-482 isoform P25117-2 limits assumed): T4 sequence (P25117 30-482 isoform P25117-2 K186L) with L157K
From the text: The porcine calcitonin receptor was cloned by expression in COS cells, using a strategy generally described in Lin et al., 1991, Proc. Natl. Acad. Sci. USA 88:3185. […] Pools of mini-prep cDNA (Sambrook et al., 1989, Molecular Cloning: A Laboratory Manual, Cold Spring Harbor Laboratory, N.Y.) containing 10^4 recombinants were transfected into COS cells and screened for binding to radioiodinated salmon calcitonin by emulsion autoradiography (Gearing et al., 1989, EMBO 8:3667). After screening 30 pools representing 3×10^5 clones, two positive pools were identified from which two positive clones with cDNA inserts 2.2 and 3.9 kb in length were isolated. The 2.2 kb clone (3JS-14-FI) was a truncated version of the 3.9 kb clone (2B5-0-I) but encoded the same open reading frame.
as §4

Compound: human calcitonin
EC50 (BIN-67 cells): ~3 nM
maximal binding ([4]; human calcitonin binding to BIN-67 cells, FIG. 6C): 1.92×10^4 cpm per sample

Compound: CC(C)NCC(O)c1ccc(O)c(O)c1 (stereo not drawn) [isoproterenol]
cAMP response (human CTR [1]; FIG. 7C): increased cAMP levels
activation of adenylate cyclase ([5]; porcine CTR-transfected cells): activated adenylate cyclase
activation of adenylate cyclase / increase of cAMP levels [7]: increased cAMP levels
activation of adenylate cyclase / increase of cAMP levels ([7]; listed as Isoproterenol): activated adenylate cyclase

Second part, led by results:

increase in cAMP levels (human CTR [1]; maximal stimulatory concentrations, 20 minutes, IBMX, FIG. 7C): ~4 fold
Kd (human CTR [2]; COS-M6 cells transfected with HCTR-BIN67, read-out: apparent Kd (Scatchard analysis)): 0.44 nM
competition of [125I]-salmon calcitonin label by excess unlabeled ligand [3]: competed out all of the label
EC50 (BIN-67 cells): ~0.7 nM
Kd ([4]; BIN-67 cells, radiolabeled ligand, 4° C., read-out: Kd (Scatchard analysis)): 0.42 nM
IC50 ([4]; read-out: apparent 50% inhibitory concentration (IC50), BIN-67 cells, [125I]human calcitonin competed with unlabeled ligand): 0.6 to 0.7 nM
increase in concentration of intracellular cAMP ([5]; cos cells, 20 min): 4 fold
Kd ([6]; COS cells transfected with porcine CTR cDNA, FIG. 1B, read-out: apparent Kd): ~6 nM
Kd [8]: ~3 nM
Compound: salmon calcitonin
increase in cAMP after stimulation with calcitonin [7]: failed to increase cAMP levels above control levels
increase in cAMP after stimulation with calcitonin ([7]; listed as calcitonin): no increase

cAMP response (human CTR [1]; FIG. 7C): failure of PTH to induce a response
displacement of radiolabeled salmon or human calcitonin binding ([4]; BIN-67 cells): failed to displace
competition for binding of radioiodinated salmon calcitonin ([6]; porcine CTR transfectants): did not compete
Compound: Bovine parathyroid hormone (1-34) [PTH]
competition for binding with radioiodinated salmon or human calcitonin (human CTR [2]): failure of other hormones, including PTH or secretin, to compete for binding

cAMP response (human CTR [1]; concentrations up to 10^-6 M): failed to induce a response
displacement of radiolabeled salmon or human calcitonin binding ([4]; BIN-67 cells): failed to displace
Compound: secretin
competition for binding with radioiodinated salmon or human calcitonin (human CTR [2]): failure of other hormones, including PTH or secretin, to compete for binding
